How the values were obtained:
[1] = system: gems (Smn-dependent nuclear speckles); experiment: Gems count (Smn-dependent nuclear speckle count) assay; format: cell-based, human; settings: SMA Type 1 patient cells, 48 hour, FIG. 9
Text: The level of Smn protein directly correlates with the amount of nuclear foci, also known as gems, produced upon staining the cell with a fluorescently labeled anti-Smn antibody (Liu and Dreyfuss, EMBO J., 1996, 15:3555). Gems are multi-protein complexes whose formation is nucleated by the Smn protein and the gems count assay is used to evaluate the level of Smn protein in the cell. As described herein, the gems count assay is used to quantify the level of Smn protein in SMA patient fibroblast cells treated with a test compound.
Cells are thawed and incubated in DMEM-10% FBS for 72 hours, then trypsinized, counted and resuspended to 100,000 cells/mL in DMEM-10% FBS. 2 mL of the cell suspension is plated in a 6-well cell culture plate with a sterile cover slip and incubated for 3 to 5 hours. Test compounds are serially diluted 3.16-fold in 100% DMSO to generate a 7-point dilution curve. […]
Cell culture medium is aspirated from the wells containing cover slips and gently washed three times with cold PBS. […] The number of gems is counted per ≧150 nuclei and % activation is calculated using DMSO and 10 nM bortezomib as controls. For each test compound, the cells are examined at all wavelengths to identify test compounds with inherent fluorescence.

[2] = system: SMA Δ7 homozygous knockout mice; experiment: Survival of neonatal Δ7 SMA mice; format: in vivo; settings: IP QD PND 3 to PND 23, then orally BID from PND 24 until study end, FIG. 15
Protocol: The change in the number of surviving mice over time is used to determine whether treatment with a test compound improves survival.
SMA Δ7 homozygous knockout mice are dosed intraperitoneally (IP) with test compound or vehicle (100% DMSO) QD from PND 3 until the dose regimen is switched to an oral dose BID in 0.5% hydroxypropylmethyl cellulose (HPMC) with 0.1% Tween-80 at a dose 3.16-fold higher than the dose used for IP and later switched to an oral dose QD in 0.5% hydroxypropylmethyl cellulose (HPMC) with 0.1% Tween-80 at a dose 6.32-fold higher than the dose used for IP. The number of surviving mice in each group is recorded every day and plotted as a percent of total number of mice. Tissues of SMA Δ7 and age-matched heterozygous mice are collected for the measurement of Smn protein levels and processed as detailed in Example 10. The total protein normalized Smn protein levels measured in the tissues are plotted as a percent of those in the age-matched heterozygous mice tissues, with the Smn level in heterozygous mice set to 100 percent. The level of Smn protein in the test compound treated mice tissue relative to that in heterozygous mice tissue is indicated as a percent value above each bar in the graph.

Smn protein = Smn protein in tissues of neonatal Δ7 SMA mice; format: in vivo; settings: neonatal SMA Δ7 homozygous knockout mice, IP QD for 7 days (PND 3 to PND 9), brain, spinal cord, muscle, FIG. 12
Protocol: The tissue samples in Safe-Lock tubes are weighed and the volume of RIPA buffer containing the protease inhibitor cocktail is added based on the weight to volume ratios for each type of tissue: Brain (50 mgmL), Muscle (50 mgmL) and Spinal Cord (25 mgmL).
Tissues are homogenized using the TissueLyzer by bead milling. 5 mm stainless steel beads are added to the sample and shaken vigorously for 5 minutes at 30 Hz in the TissueLyzer. The samples are then centrifuged for 20 minutes at 14,000×g in a microcentrifuge and the homogenates transferred to the PCR plate. The homogenates are diluted in RIPA buffer to approximately 1 mgmL for HTRF and approximately 0.5 mgmL for total protein measurement using the BCA protein assay. […] Fluorescence for each well of the plate at 665 nm and 620 nm is measured on an EnVision multilabel plate reader (Perkin-Elmer). The total protein in the tissue homogenate is measured using the BCA assay according to the manufacturer's protocol.
The normalized fluorescence signal is calculated for each sample, Blank and vehicle control well by dividing the signal at 665 nm by the signal at 620 nm. Normalizing the signal accounts for possible fluorescence quenching due to the matrix effect of the tissue homogenate. […] The ΔF value for each tissue sample well is divided by the total protein quantity (determined using the BCA assay) for that tissue sample. […]

Compound | gems (nuclear speckle) count relative to DMSO [1] | survival [2] | total protein normalized Smn level in tissues (Smn protein)
Cc1cn2cc(-c3cc4ccc(N5CCN6CCC[C@H]6C5)cc4c(=O)o3)nc2c(C)n1 [Cpd 69, 3-(6,8-dimethylimidazo[1,2-a]pyrazin-2-yl)-7-[(8aS)-hexahydropyrrolo[1,2-a]pyrazin-2(1H)-yl]-1H-isochromen-1-one] | progressively more gems | improved compared to vehicle treated mice | 
Cc1cn2cc(-c3cc4ccc(N5CCN(C)CC5)cc4c(=O)o3)nc2c(C)n1 [Cpd 65, 3-(6,8-dimethylimidazo[1,2-a]pyrazin-2-yl)-7-(4-methylpiperazin-1-yl)-1H-isochromen-1-one] | progressively more gems | improved compared to vehicle treated mice | dose dependently increased

Source: US9399649B2, “Compounds for treating spinal muscular atrophy” (PTC Therapeutics Inc., priority 2012, dated 2016)
